Source: the NIST ThermoML archive (doi:10.1016/j.fluid.2013.11.028)

Columns and labels:
[1] = wn = mass fraction of the nth substance listed; details: 101 kPa, Liquid; for viscosity: Falling or rolling sphere viscometry; for binary diffusion coefficient: Taylor dispersion method; for mass density: Vibrating tube method
[2] = 101 kPa, Liquid, Vibrating tube method
[3] = xn = mol fraction of the nth substance listed; details: 101 kPa, Liquid, Taylor dispersion method, x1 = 0.2

NCCNCCN [di(2-aminoethyl)amine] + O
[1]
Details	binary diffusion coefficient [m2/s]	mass density [kg/m3]	viscosity [mPa·s]
303.15 K, w1 = 0	7.45e-10	–	–
303.15 K, w1 = 0.1	7.01e-10	998.5	1.211
303.15 K, w1 = 0.2	6.64e-10	1002.9	2.011
303.15 K, w1 = 0.3	6.14e-10	1009.8	3.572
303.15 K, w1 = 0.4	5.57e-10	1016.2	7.31
303.15 K, w1 = 1	–	942.1	–
308.15 K, w1 = 0	8.43e-10	–	–
308.15 K, w1 = 0.1	7.93e-10	996.7	1.08
308.15 K, w1 = 0.2	7.61e-10	1000.8	1.751
308.15 K, w1 = 0.3	7.14e-10	1007.2	3.015
308.15 K, w1 = 0.4	6.6e-10	1013	5.915
308.15 K, w1 = 1	–	937.9	–
313.15 K, w1 = 0	9.5e-10	–	–
313.15 K, w1 = 0.1	8.95e-10	994.8	0.97
313.15 K, w1 = 0.2	8.52e-10	998.7	1.54
313.15 K, w1 = 0.3	8.13e-10	1004.5	2.582
313.15 K, w1 = 0.4	7.41e-10	1009.9	4.859
313.15 K, w1 = 1	–	933.8	–
318.15 K, w1 = 0	1.03e-09	–	–
318.15 K, w1 = 0.1	1.01e-09	992.8	0.88
318.15 K, w1 = 0.2	9.38e-10	996.3	1.366
318.15 K, w1 = 0.3	8.82e-10	1001.8	2.234
318.15 K, w1 = 0.4	8.55e-10	1006.7	4.049
318.15 K, w1 = 1	–	929.6	–
323.15 K, w1 = 0	1.19e-09	–	–
323.15 K, w1 = 0.1	1.12e-09	990.6	0.799
323.15 K, w1 = 0.2	1.06e-09	993.9	1.221
323.15 K, w1 = 0.3	1.01e-09	998.9	1.95
323.15 K, w1 = 0.4	9.61e-10	1003.4	3.302
323.15 K, w1 = 1	–	925.5	–

CN(C)CCN(C)C [N,N,N',N'-tetramethyl-1,2-diaminoethane]
[2]
Details	mass density [kg/m3]
303.15 K	767.3
308.15 K	762.9
313.15 K	759.1
318.15 K	754.7
323.15 K	750.3

OCCO [1,2-ethanediol] + O
[3]
Details	binary diffusion coefficient [m2/s]
303.15 K	8.21e-10
308.15 K	9.03e-10
313.15 K	9.98e-10
318.15 K	1.09e-09
323.15 K	1.2e-09

CN(C)CCN(C)C [N,N,N',N'-tetramethyl-1,2-diaminoethane] + O
[1]
Details	binary diffusion coefficient [m2/s]	mass density [kg/m3]	viscosity [mPa·s]
303.15 K, w1 = 0	7.34e-10	–	–
303.15 K, w1 = 0.1	5.61e-10	982.9	1.34
303.15 K, w1 = 0.2	4.62e-10	972.6	2.338
303.15 K, w1 = 0.3	3.74e-10	962.1	3.963
303.15 K, w1 = 0.4	3.12e-10	947.8	6.207
303.15 K, w1 = 1	–	767.3	–
308.15 K, w1 = 0	8.35e-10	–	–
308.15 K, w1 = 0.1	6.29e-10	981	1.179
308.15 K, w1 = 0.2	5.25e-10	970	1.983
308.15 K, w1 = 0.3	4.4e-10	958.6	3.243
308.15 K, w1 = 0.4	3.66e-10	943.7	4.925
308.15 K, w1 = 1	–	762.9	–
313.15 K, w1 = 0	9.38e-10	–	–
313.15 K, w1 = 0.1	7.16e-10	979	1.046
313.15 K, w1 = 0.2	5.74e-10	967.3	1.704
313.15 K, w1 = 0.3	4.91e-10	955.1	2.705
313.15 K, w1 = 0.4	4.25e-10	939.5	3.941
313.15 K, w1 = 1	–	759.1	–
318.15 K, w1 = 0	1.05e-09	–	–
318.15 K, w1 = 0.1	8.01e-10	976.7	0.933
318.15 K, w1 = 0.2	6.38e-10	964.4	1.481
318.15 K, w1 = 0.3	5.53e-10	951.5	2.287
318.15 K, w1 = 0.4	4.61e-10	935.3	3.205
318.15 K, w1 = 1	–	754.7	–
323.15 K, w1 = 0	1.18e-09	–	–
323.15 K, w1 = 0.1	9.51e-10	974.3	0.839
323.15 K, w1 = 0.2	7.5e-10	961.4	1.301
323.15 K, w1 = 0.3	6.29e-10	947.8	1.96
323.15 K, w1 = 0.4	5.31e-10	931	2.682
323.15 K, w1 = 1	–	750.3	–

NCCNCCN [di(2-aminoethyl)amine]
[2]
Details	mass density [kg/m3]
303.15 K	942.1
308.15 K	937.9
313.15 K	933.8
318.15 K	929.6
323.15 K	925.5

CNCCCN [N-methyl-1,3-diaminopropane]
[2]
Details	mass density [kg/m3]
303.15 K	849.1
308.15 K	844.7
313.15 K	840.3
318.15 K	835.9
323.15 K	831.5
